{"source": "patent US20110091375A1", "about": "“USE OF THE COMBINATION COMPRISING TEMOZOLOMIDE AND TNF-ALPHA FOR TREATING GLIOBLASTOMA” (THE UNIVERSITY OF CHICAGO, priority 2004, published 2011)", "key": {"U87 hindlimb xenografts": {"tested_on": "U87 hindlimb xenografts", "assay": "Hindlimb glioma xenograft tumor growth", "format": "in vivo, nude mice", "details": "30 days following treatment, second hindlimb study", "protocol": "Hindlimb Studies: U87 hindlimb xenografts were established as described above in Example 4. In one study, mice were randomized into four groups as described in Example 4 and treatment initiated (day 0). Ad.Egr-TNF (2×10^8 pu) was injected IT twice a week for 4 total injections, and 5 mg/kg TMZ was given IP 3 h after each vector injection for a total of 20 mg/kg. The dose of TMZ used was approximately 0.2 LD10 and was chosen to have modest anti-tumor effect but to not be curative based on previous studies (Friedman, H. S. et al. (1995) Cancer Res 55(13):2853-2857) and data from our lab showing LD50 for IP TMZ to be approximately 500 mg/kg. Tumor volume was measured every 2-3 days. Fractional tumor volume (V/V0 where V0=volume on day 0) was calculated and plotted.\nIn a second study, tumor-bearing mice were randomized into eight treatment groups: untreated control (UTC); intratumoral (IT) Ad.Egr-TNF alone; intraperitoneal (IP) TMZ alone; IR alone; Ad.Egr-TNF and TMZ; Ad.Egr-TNF and IR; TMZ and IR; and Ad.Egr-TNF, TMZ and IR. Ad.Egr-TNF was administered IT at a dose of 2×10^8 pu/10 μL twice a week for 2 weeks, IP TMZ was given 3 h after vector at 5 mg/kg to a total of 20 mg/kg. […] Xenografts were measured twice a week using calipers, tumor volume was calculated, and fractional tumor volumes (V/V0 where V0=volume on day 0) were plotted."}, "U87 cells": {"tested_on": "U87 cells", "assay": "Flow cytometric analysis of apoptosis (fractional DNA content, annexin V binding)", "format": "cell-based, human", "details": "fractional DNA content, TMZ 100 μM", "protocol": "Fractional DNA content: U87 cells (10^5) were plated overnight at 37° C. with 5% CO2. The cells were then treated with TNFα (10 ng/mL) and/or TMZ (100 μM). At 72 h the cells were washed in PBS and fixed in ice-cold 70% (v/v) ethanol. The cells were washed twice and incubated in RNase (1 mg/mL) for 30 m at 37° C., then incubated in propidium iodide (PI) solution (100 ug/mL) for […] at 4° C. Flow cytometric analysis was performed on a FACSort instrument (Becton Dickinson Immunocytometry Systems, San Jose, Calif.), and the data were analyzed using the CellQuest software (Becton Dickinson).\nAnnexin V binding (van Engeland, M. et al. (1998) Cytometry 31(1):1-9): At 72 h cells were washed in PBS and incubated in the dark for 15 m with binding buffer containing 5 μl of Annexin V-FITC and 5 μl of PI (Annexin V-FITC apoptosis detection kit II). The data was analyzed by Flowjo analysis software (Tree Star Inc., Ashland, Oreg.).\nCells were either un-transfected or co-transfected with pRC-CMV-p65 or pRC-CMV in the presence of a GFP plasmid at a ratio of 4:1. Under these conditions, cells expressing GFP also expressed the co-transfected plasmid (Tang, F. et al. (2002) Mol Cell Biol 22:8571-8579). Cells were then left untreated or treated as described in the figure legends. At 72 h cells were washed in PBS and incubated in the dark for 15 m with binding buffer containing 5 μl of Annexin V-FITC and 5 μl of Propidium iodide (PI). In transfected cells, annexin V binding was assessed in GFP positive cells. Data was analyzed by Flowjo analysis software (Tree Star Inc., Ashland, Oreg., USA) as described in U.S. Provisional Application No. 60/604,251 (Yamini, B. et al. (2004) Cancer Res 64:6381-6384)."}, "[1]": {"tested_on": "U87 intracranial xenografts", "assay": "Histological analysis and TUNEL of intracranial tumor sections", "format": "in vivo, nude mice", "details": "day 7", "protocol": "In a second experiment, mice were randomized into eight groups (untreated control (UTC); intratumoral (IT) Ad.Egr-TNF alone; intraperitoneal (IP) TMZ alone; IR alone; Ad.Egr-TNF and TMZ; Ad.Egr-TNF and IR; TMZ and IR; and Ad.Egr-TNF, TMZ and IR). A single dose of 5×10^5 U87 cells was inoculated into the right caudate nucleus of each mouse on day 0 using a screw guide technique (Lal, S. et al. (2000) J Neurosurg 92:326-333). On day 5, 5×10^8 pu Ad.Egr-TNF in 5 μL volume was injected once via the screw guide directly into the tumor. Beginning two hours after vector injection, 5 Gy IR was delivered to the tumor area and repeated every 2-3 days to a total of 30 Gy. TMZ (5 mg/kg) was given IP 3 h after vector inoculation and like doses were given daily for the next two days for a total dose of 15 mg/kg. Control animals received SFM IT and IP and were also placed in Lucite chambers. Daily assessment of animal appearance was made. […]\nParaffin embedded brains were sectioned (8 μm), stained with hematoxylin and eosin and analyzed in a blinded fashion.\nTerminal deoxynucleotidyl transferase-mediated dUTP-biotin nick end-labeling (TUNEL) assay was performed in accordance with the manufacturer's instructions (Chemicon) and analyzed blindly at 400× magnification by use of a computer-aided light microscope with reconstruction software (Neurolucida, Microbrightfield, Vt.). […]"}, "[2]": {"tested_on": "NF-κB in U87 glioma cells", "assay": "NF-κB-responsive luciferase reporter assay, U87", "format": "cell-based, human", "protocol": "U87 cells (5×10^3) were plated overnight and subsequently co-transfected with Ig-κB-Luc (or pE425 GL3) and the Renilla reniformis expression vector, pRL-TK, to normalize transfection efficiency, at a ratio of 10:1 using SuperFectin transfection kit (Qiagen, Valencia, Calif., USA). Twenty-four hours after transfection, the cells were pretreated with TMZ (100 μM) for 16 h, then treated with TNFα (10 ng/mL). Five hours later NF-κB (or Egr-1) and Renilla luciferase activity were measured with the Dual-Luciferase reporter assay system (Promega Corp., Madison, Wis., USA). Relative luciferase was calculated as the ratio of firefly luminescence/Renilla luminescence for each sample."}, "[3]": {"tested_on": "NF-κB in MIAPaCa-2 pancreatic cancer cells", "assay": "NF-κB-responsive luciferase reporter assay, MIAPaCa-2", "format": "cell-based, human"}, "NF-κB in glioma cells": {"tested_on": "NF-κB in glioma cells", "assay": "IR- and TNFα-induced NF-κB activity and nuclear translocation", "format": "cell-based", "details": "co-treatment with TNFα and IR"}, "LD50 of IP TMZ": {"assay": "LD50 of IP TMZ", "set-up": "species or system mice", "details": "mouse, in vivo"}}, "note": "“Also recorded” adds a separate entry of the source.", "data": [{"smiles": "Cn1nnc2c(C(N)=O)ncn2c1=O", "note": "[TMZ, temozolomide]", "values": [{"measurement": "animals with complete disappearance of palpable tumor", "setting": "U87 hindlimb xenografts", "value": "1/10"}, {"measurement": "cell cycle distribution", "setting": "U87 cells", "value": "increase in the percentage of cells in G2/M phase"}, {"measurement": "TUNEL positive cells", "setting": "[1]", "value": "14±12", "unit": "TUNEL^+ cells/10^−6 mm^2"}, {"measurement": "TNFα-induced NF-κB transcriptional activity", "setting": "[2]; U87, TMZ pre-treatment", "value": "dose dependent inhibition; also recorded: completely inhibited"}, {"measurement": "transcriptional activity of NF-κB, TMZ used alone", "setting": "[2]; glioma cells, no TNFα", "value": "slightly increases"}, {"measurement": "TNFα-induced NF-κB transcriptional activity", "setting": "[3]", "value": "activated"}, {"measurement": "NF-κB transcriptional activity and nuclear translocation increased by TNFα and IR", "setting": "NF-κB in glioma cells", "value": "inhibited"}, {"measurement": "LD50", "setting": "LD50 of IP TMZ", "value": "~500", "unit": "mg/kg"}]}]}
